# Publication PMC6858373 (Scientific Reports, 2019)
# Counter-ions that a name gives are not always drawn. Like-named read-outs stand apart in the source and are kept apart here.
# Legend:
# Clone V cells [1] = conditions: human
# [2] = target: full-length P. pyralis luciferase (Photinus pyralis, UniProt P08659, K549A/L550V/N119G/N50D/S548I); format: cell-based; conditions: for Luciferase Assay % Lum: full-length luciferase counter-screen luminescence; for Luciferase Assay Z-score: full-length luciferase counter-screen
# [3] = target: T1, FGF14:Nav1.6 C-tail complex (Homo sapiens, UniProt Q92915+Q9UQD0); experiment: Split-luciferase complementation assay (LCA) in Clone V double stable HEK293 cells; format: cell-based; conditions: for Split Luciferase Assay Z-score Set 1 / Split Luciferase Assay % Lum Set 1: biological replicate Set 1; for Split Luciferase Assay Z-score Set 1 / Split Luciferase Assay Z-score Set 2: normalized to on-plate 0.3% DMSO controls; for Split Luciferase Assay % Lum Set 1 / Split Luciferase Assay %Lum Set 2: normalized to on-plate 0.3% DMSO controls (n=16 per plate); for Split Luciferase Assay Z-score Set 2 / Split Luciferase Assay %Lum Set 2: biological replicate Set 2; for Split Luciferase Assay %Lum Avg: average of Set 1 and Set 2, normalized to 0.3% DMSO controls
# T1 construct: polymerase chain reaction (PCR) amplification of the FGF14 open reading frame (nt 1–855); C-terminal fragment of Nav1.6 (amino acids 1763–1976) fused with CD4ΔC-tail (amino acids 1–395); expressed in transfected cells
# in vitro = conditions: human
# Clone V cells [4] = experiment: CellTiter Blue (CTB) cell viability counter-screen; conditions: CC_NCI screening; CTB cell viability fluorescence; normalized to on-plate 0.3% DMSO controls
# [5] = CC_NCI screening, normalized to on-plate 0.3% DMSO controls
# [6] = CC_NCI screening, LCA luminescence
# T1 sequence (Q92915 1-252 isoform Q92915-2): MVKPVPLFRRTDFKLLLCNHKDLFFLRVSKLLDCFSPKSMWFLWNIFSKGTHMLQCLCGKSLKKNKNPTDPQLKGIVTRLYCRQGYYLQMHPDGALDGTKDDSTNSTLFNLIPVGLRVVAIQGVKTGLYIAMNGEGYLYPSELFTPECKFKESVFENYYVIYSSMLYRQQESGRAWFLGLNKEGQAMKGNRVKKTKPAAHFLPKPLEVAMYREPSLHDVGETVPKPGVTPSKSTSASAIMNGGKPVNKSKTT
# T1 sequence (Q9UQD0 1763-1976 limits assumed): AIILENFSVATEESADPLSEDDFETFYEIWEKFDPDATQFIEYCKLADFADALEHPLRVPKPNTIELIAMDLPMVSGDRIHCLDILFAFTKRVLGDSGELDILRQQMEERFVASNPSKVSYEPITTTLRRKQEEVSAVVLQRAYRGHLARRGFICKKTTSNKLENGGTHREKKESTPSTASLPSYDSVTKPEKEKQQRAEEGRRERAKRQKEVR
# Sequence of full-length P. pyralis luciferase (P08659 whole entry N50D/N119G/S548I/K549A/L550V, looked up): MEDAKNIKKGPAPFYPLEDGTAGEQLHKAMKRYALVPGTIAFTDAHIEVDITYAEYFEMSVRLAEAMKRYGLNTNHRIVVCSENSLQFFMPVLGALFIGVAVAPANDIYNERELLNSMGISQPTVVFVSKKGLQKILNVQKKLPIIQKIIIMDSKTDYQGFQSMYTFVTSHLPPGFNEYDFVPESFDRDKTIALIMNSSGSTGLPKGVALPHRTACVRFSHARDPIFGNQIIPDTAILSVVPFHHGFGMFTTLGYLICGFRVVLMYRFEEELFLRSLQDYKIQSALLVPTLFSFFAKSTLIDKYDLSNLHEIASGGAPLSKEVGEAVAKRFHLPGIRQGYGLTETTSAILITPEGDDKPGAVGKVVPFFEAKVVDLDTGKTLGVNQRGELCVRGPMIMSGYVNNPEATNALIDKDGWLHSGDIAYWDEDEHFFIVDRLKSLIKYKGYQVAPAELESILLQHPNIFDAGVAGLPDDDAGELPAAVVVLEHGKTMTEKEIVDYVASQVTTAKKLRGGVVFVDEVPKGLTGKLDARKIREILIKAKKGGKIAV
Compound,"Luciferase Assay % Lum (full-length luciferase counter-screen) [2, 5] [%]","Luciferase Assay Z-score (full-length luciferase counter-screen) [2, 5]",Split Luciferase Assay Z-score Set 1 ([3]; CC_NCI screening),Split Luciferase Assay % Lum Set 1 ([3]; CC_NCI screening) [%],Split Luciferase Assay Z-score Set 2 ([3]; CC_NCI screening),Split Luciferase Assay %Lum Set 2 ([3]; CC_NCI screening) [%],Split Luciferase Assay %Lum Avg [3] [%],"Toxicity Assay Z-score (CTB cell viability) (Clone V cells [1]; 16 h, 30 µM)","Toxicity Assay Z-score (Clone V cells [1]; 16 h, 30 µM)",Toxicity Assay % Fluor (Clone V cells [4]) [%],"Luciferase Assay % Lum [2, 5] [%]","Luciferase Assay Z-score [2, 5]","Split Luciferase Assay % Lum Set 1 [3, 6] [%]","Split Luciferase Assay %Lum Set 2 [3, 6] [%]","Split Luciferase Assay Z-score Set 1 ([3]; CC_NCI screening, LCA)","Split Luciferase Assay Z-score Set 2 ([3]; CC_NCI screening, LCA)",Split Luciferase Assay %Lum Avg ([3]; CC_NCI screening) [%],also measured
O=P1(NCCCl)OCCCN1CCCl (stereo not shown) [Ifosfamide],96.59,-0.44,1.26,115.56,-0.01,99.87,107.71,–,–,–,–,–,–,–,–,–,–,Toxicity Assay Z-score (CTB cell viability) (Clone V cells [1]): 0.82; viability (in vitro): 106%
COc1c2occc2cc2ccc(=O)oc12 [Methoxsalen],93.90,-0.78,–,–,–,–,–,1.23,–,–,–,–,–,–,–,–,–,"viability at 16 h, 30 µM (in vitro): 109%"
CC(C)C[C@H](NC(=O)[C@H](CCc1ccccc1)NC(=O)CN1CCOCC1)C(=O)N[C@@H](Cc1ccccc1)C(=O)N[C@@H](CC(C)C)C(=O)[C@@]1(C)CO1 [Carfilzomib],97.18,-0.36,-0.68,91.64,-1.62,80.10,85.87,–,–,–,–,–,–,–,–,–,–,Toxicity Assay Z-score (CTB cell viability) (Clone V cells [1]): 1.05; viability (in vitro): 108%
"Nc1ncn([C@H]2C[C@H](O)[C@@H](CO)O2)c(=O)n1 [Decitabine, reference compound]",110.67,1.37,6.88,185.13,7.95,197.66,191.40,0.87,–,–,–,–,–,–,–,–,–,"EC50 [3]: 28.8 µM; Z-score (LCA primary screening) ([3]; 30 µM, 384-well, average of primary screening (n = 2), vs on-plate 0.3% DMSO): 7.41; EMax (% Luminescence) ([3]; agonists, Clone V cells, 384-well, normalized to DMSO): 191.40 % Luminescence; viability at 16 h, 30 µM (in vitro; Clone V cells): 106%"
CC(=O)O[C@]1(C(C)=O)CC[C@H]2[C@@H]3C=C(C)C4=CC(=O)CC[C@]4(C)[C@H]3CC[C@@]21C [Megestrol acetate],–,–,4.24,152.52,2.87,135.24,143.88,0.79,–,–,–,–,–,–,–,–,–,"Luciferase Assay % Lum (full-length luciferase counter-screen) [2]: 99.64%; Luciferase Assay Z-score (full-length luciferase counter-screen) [2]: -0.05; viability at 16 h, 30 µM (in vitro): 106%"
Nc1ncn([C@@H]2O[C@H](CO)[C@@H](O)[C@H]2O)c(=O)n1 [Azacitidine],93.68,-0.81,-0.32,95.99,0.24,102.99,99.49,0.41,–,–,–,–,–,–,–,–,–,"viability at 16 h, 30 µM (in vitro): 103%"
CS(=O)(=O)OCCCCOS(C)(=O)=O [Busulfan],97.98,-0.26,-0.50,93.82,1.01,112.35,103.09,0.92,–,–,–,–,–,–,–,–,–,"viability at 16 h, 30 µM (in vitro; Clone V cells): 107%"
Nc1ccn([C@@H]2O[C@H](CO)[C@@H](O)C2(F)F)c(=O)n1 [Gemcitabine hydrochloride],102.42,0.31,0.29,103.60,-0.43,94.67,99.13,2.40,–,–,–,–,–,–,–,–,–,"viability at 16 h, 30 µM (in vitro; Clone V cells): 117%"
Clc1ccc(C(c2ccccc2Cl)C(Cl)Cl)cc1 (stereo not shown) [Mitotane],54.78,-5.79,-6.12,24.24,-5.17,36.41,30.33,-0.85,–,–,–,–,–,–,–,–,–,"viability at 16 h, 30 µM (in vitro): 93.9%"
CC1(C)CCC(c2ccc(Cl)cc2)=C(CN2CCN(c3ccc(C(=O)NS(=O)(=O)c4ccc(N[C@H](CCN5CCOCC5)CSc5ccccc5)c(S(=O)(=O)C(F)(F)F)c4)cc3)CC2)C1 [ABT-263],–,–,–,–,–,–,–,–,-0.99,92.92,103.24,0.42,93.82,71.78,-0.50,-2.30,82.80,–
CC[C@@]1(O)C(=O)OCc2c1cc1n(c2=O)Cc2cc3c(CN(C)C)c(O)ccc3nc2-1 [Topotecan hydrochloride],–,–,–,–,–,–,–,–,-0.96,93.13,88.71,-1.45,57.94,58.26,-3.40,-3.40,58.10,–
C=CC[C@@H]1/C=C(\C)C[C@H](C)C[C@H](OC)[C@H]2O[C@@](O)(C(=O)C(=O)N3CCCC[C@H]3C(=O)O[C@H](/C(C)=C/[C@@H]3CC[C@@H](O)[C@H](OC)C3)[C@H](C)[C@@H](O)CC1=O)[C@H](C)C[C@@H]2OC [FK-506],–,–,–,–,–,–,–,–,1.82,113.03,77.49,-2.88,80.77,91.55,-1.55,-0.69,86.16,–
CC[C@]1(O)C[C@H]2CN(CCc3c([nH]c4ccccc34)[C@@](C(=O)OC)(c3cc4c(cc3OC)N(C=O)[C@H]3[C@@](O)(C(=O)OC)[C@H](OC(C)=O)[C@]5(CC)C=CCN6CC[C@]43[C@@H]65)C2)C1 [Vincristine sulfate],–,–,–,–,–,–,–,–,-0.20,98.56,109.71,1.24,200.35,196.62,8.11,7.86,198.49,–
CC1=C(/C=C/C(C)=C/C=C/C(C)=C/C(=O)O)C(C)(C)CCC1 [Tretinoin],–,–,–,–,–,–,–,–,-1.78,87.25,80.43,-2.51,117.73,106.11,1.43,0.50,111.92,–
O=C1CCC(N2C(=O)c3ccccc3C2=O)C(=O)N1 (stereo not shown) [Thalidomide],–,–,–,–,–,–,–,–,-1.74,87.53,100.85,0.11,128.60,108.19,2.31,0.67,118.40,–
CCC1=C[C@@H]2CN(C1)Cc1c([nH]c3ccccc13)[C@@](C(=O)OC)(c1cc3c(cc1OC)N(C)[C@H]1[C@@](O)(C(=O)OC)[C@H](OC(C)=O)[C@]4(CC)C=CCN5CC[C@]31[C@@H]54)C2 [Vinorelbine tartrate],–,–,–,–,–,–,–,–,-1.62,88.42,110.51,1.35,231.88,185.18,10.66,6.93,208.53,–
